Values of other authors in patent US12551462B2, “Anti-aging composition with rutin, apigenin, epigallocatechin gallate, lipoic acid and the NAD precursor, niacinamide” (NUCHIDO LIMITED, priority 2018, dated 2026).

System: NAD concentration
Details: Trammell et al. 2016

SMILES: NC(=O)c1ccc[n+]([C@@H]2O[C@H](CO)[C@@H](O)[C@H]2O)c1 [Niagen, nicotinamide riboside]
- Enhancement of NAD (as % baseline): 270%
